Measured values taken from paper PMC9679916 (Biomacromolecules, 2021).
Bridges are numbered along the chain shown (N, C = ends). Where no end group is shown, it is not given here.

Experiments:
human MRP-14 (hS100A9) = molecular target: T1, human MRP-14 (hS100A9) (Homo sapiens, UniProt P06702); test: ELISA-based binding affinity of MRP-14-targeted TMV, human protein; conditions: read-out: KD (nM) human MRP-14, hS100A9 2 μg/mL coated, TMV 0-5 μg/mL, anti-TMV detection, single-site binding model, estimated
T1 sequence (P06702 1-114): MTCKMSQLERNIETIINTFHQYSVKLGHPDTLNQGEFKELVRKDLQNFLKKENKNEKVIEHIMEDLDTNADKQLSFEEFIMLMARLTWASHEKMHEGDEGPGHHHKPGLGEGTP

mouse MRP-14 (mS100A9) = molecular target: T2, mouse MRP-14 (mS100A9) (Mus musculus, UniProt P31725); test: ELISA-based binding affinity of MRP-14-targeted TMV, mouse protein; conditions: for Kd: read-out: KD (nM) mouse MRP-14, ELISA, mS100A9 2 μg/mL coated, TMV 0-5 μg/mL, anti-TMV detection, single-site binding model, estimated
T2 sequence (P31725 1-113): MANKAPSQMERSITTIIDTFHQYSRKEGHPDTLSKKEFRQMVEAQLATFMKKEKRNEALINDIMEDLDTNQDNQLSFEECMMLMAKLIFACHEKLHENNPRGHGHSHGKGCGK

[1] = tested on: deep vein thrombi in inferior vena cava; test: Murine DVT model; format: in vivo, mouse; conditions: vs PBS group, 3 h postinjection
[2] = molecular target: T3, His-tagged MRP-14 (myeloid related protein 14) (human, UniProt P06702 1-114); test: SPR
T3 sequence: T1 sequence (P06702 1-114)

[3] = molecular target: T4, MRP-8/14 heterodimer (untagged MRP-8 premixed 1:1 with His-tagged MRP-14) (human | , UniProt P06702;P05109); test: SPR
T4 sequence 1: T1 sequence (P06702 1-114)
T4 sequence 2: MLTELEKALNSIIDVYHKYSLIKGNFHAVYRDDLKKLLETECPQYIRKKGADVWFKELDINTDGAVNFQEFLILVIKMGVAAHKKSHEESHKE

ACNSVHQHHCGGGS-N3 (disulfide) [TMV-MTP6]
Kd (human MRP-14 (hS100A9)): 11.4 nM | binding affinity, times stronger toward mouse than human MRP-14 (mouse MRP-14 (mS100A9); ratio of ELISA KD values, mouse vs human MRP-14): ~ 4 times | Kd (mouse MRP-14 (mS100A9)): 2.6 nM

ASSHIHHGGGS-C [TMV-MTP2]
Kd (human MRP-14 (hS100A9)): 13.1 nM | Kd (mouse MRP-14 (mS100A9)): 11.9 nM

ASSHIHHGGGS-C [CPMV-MTP2]
reduction in thrombus weight and area [1]: 50%

ACNSVHQHHCGGGS [MTP6 synthetic peptide with GGGS spacer]
Kd [2]: 39.6 µM | Kd [3]: 57.6 µM

HNHMADPGGGS-NH2 [MTP3 synthetic peptide with GGGS spacer]
Kd [2]: 117 µM

ACNSHRHGACGGGS-NH2 (disulfide 2-10 (inferred)) [MTP5 synthetic peptide with GGGS spacer]
Kd [2]: 67.6 µM
